The source of these data is US7745646B2, “Bicyclic heteroaryl inhibitors of PDE4” (Kalypsys, Inc., priority 2006, dated 2010).

Bounds are passed on as bounds.

For this experiment, the target named is T1, PDE4B (Homo sapiens, UniProt Q07343).
T1 construct: hex-histidine (His6) (N); made in house
T1 sequence (Q07343 330-659 limits assumed, species assumed): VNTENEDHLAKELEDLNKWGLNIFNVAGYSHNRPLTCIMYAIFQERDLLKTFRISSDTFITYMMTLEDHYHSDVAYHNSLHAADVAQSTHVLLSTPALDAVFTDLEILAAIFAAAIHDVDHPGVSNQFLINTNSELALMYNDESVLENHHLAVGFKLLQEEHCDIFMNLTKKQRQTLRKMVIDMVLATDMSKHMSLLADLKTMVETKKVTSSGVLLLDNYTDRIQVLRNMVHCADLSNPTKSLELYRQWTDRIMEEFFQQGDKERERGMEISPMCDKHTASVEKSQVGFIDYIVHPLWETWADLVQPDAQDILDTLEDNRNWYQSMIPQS
The experiment is described as follows: Novel coupled PDE/AK bioluminescent assay, PDE4B inhibition. It counts as biochemical. The conditions noted are these: PDE4B catalytic domain.
Excerpt: We developed a novel coupled PDE/AK bioluminescent high-throughput assay to measure the activity of phosphodiesterases. In the PDE/AK assay, the AMP produced from the hydrolysis of cAMP by phosphodiesterase is converted to adenosine diphosphate (ADP) by the phosphotransferase activity of adenylate kinase (also known as ADK or myokinase). Adenylate kinase will catalyze the conversion of 1 mole of AMP and 1 mole of ATP into 2 moles of ADP. Thus the conversion of AMP to ADP will result in the subsequent loss of ATP. The decrease in ATP concentration can be monitored as light output using luciferase in a reaction that requires ATP to produce light. The PDE/AK assay uses luciferase, which catalyzes the production of light from ATP present in the reaction mix. The amount of emitted light is inversely proportional to the level of AMP present in the reaction. Test compounds are incubated with the phosphodiesterases and phosphodiesterase inhibitors will decrease the rate of cAMP hydrolysis and decrease the subsequent production of AMP.
A novel coupled PDE/AK assay was utilized to measure the inhibitory activity of compounds on PDE isoforms. The catalytic domain of PDE4B was fused to an amino-terminus hex-histidine affinity tag and purified. PDE4B enzyme was incubated with compounds for 10 minutes. Cyclic AMP substrate, ATP and adenylate kinase were then added to the PDE enzyme mix and incubated for 45 minutes at room temperature. A commercial ATP detection assay, Perkin Elmer's easyLite ATP detection reagent, was then added to measure the relative amount of ATP present in the reaction. After 10 minute incubation, the luminescent signal was quantitated with either the Perkin Elmer Viewlux or Molecular Devices Acquest or Analyst.
Consider `COc1ccc2c(Nc3c(Cl)cncc3Cl)cc(=O)oc2c1OCCCCCCN(C)C` [Example 79, 4-(3,5-Dichloropyridin-4-ylamino)-8-(6-(dimethylamino)hexyloxy)-7-methoxy-2H-chromen-2-one], for which the IC50 (in general, the concentration at which inhibition is half-maximal) is less than 1 µM.

`COc1ccc2c(Nc3c(Cl)cncc3Cl)cc(=O)oc2c1OCCCCCCCN(C)C` [Example 80, 4-(3,5-Dichloropyridin-4-ylamino)-8-(7-(dimethylamino)heptyloxy)-7-methoxy-2H-chromen-2-one] displayed an IC50 of less than 1 µM.

On to `COc1ccc2c(Nc3c(Cl)cncc3Cl)cc(=O)oc2c1OCCCCCCCCN(C)C` [Example 81, 4-(3,5-Dichloropyridin-4-ylamino)-8-(8-(dimethylamino)octyloxy)-7-methoxy-2H-chromen-2-one], for which the IC50 is less than 1 µM.

Compound `COc1ccc2c(Nc3c(Cl)cncc3Cl)c(CCO)c(=O)oc2c1OC1CCCC1` [Example 82, 8-(Cyclopentyloxy)-4-(3,5-dichloropyridin-4-ylamino)-3-(2-hydroxyethyl)-7-methoxy-2H-chromen-2-one] registered an IC50 greater than 1 µM.

As to `COc1ccc2c(Nc3c(Cl)cncc3Cl)cc(=O)oc2c1OCCCCCNC(=N)N` [Example 83, 1-(5-(4-(3,5-Dichloropyridin-4-ylamino)-7-methoxy-2-oxo-2H-chromen-8-yloxy)pentyl)guanidine], the IC50 was less than 1 µM.

`COc1ccc2c(Nc3c(Cl)cncc3Cl)cc(=O)oc2c1OCCCCCC(=O)NO` [Example 84, 6-(4-(3,5-Dichloropyridin-4-ylamino)-7-methoxy-2-oxo-2H-chromen-8-yloxy)-N-hydroxyhexanamide] displayed an IC50 of less than 1 µM.

Compound `COc1ccc2c(Nc3c(Cl)cncc3Cl)cc(=O)oc2c1OCCCO` [Example 85, 4-(3,5-Dichloropyridin-4-ylamino)-8-(3-hydroxypropoxy)-7-methoxy-2H-chromen-2-one] displayed an IC50 of less than 1 µM.

Turning to `COc1ccc2c(Nc3c(Cl)cncc3Cl)cc(=O)oc2c1OCCCCOC(C)=O` [Example 86, 4-(4-(3,5-Dichloropyridin-4-ylamino)-7-methoxy-2-oxo-2H-chromen-8-yloxy)butyl acetate], the IC50 was less than 1 µM.

For the compound `COc1ccc2c(Nc3c(Cl)cncc3Cl)cc(=O)oc2c1OCCCCO[C@@H]1O[C@H](CO)[C@@H](O)[C@H](O)[C@H]1O` [Example 87, 4-(3,5-Dichloropyridin-4-ylamino)-7-methoxy-8-(4-((2R,3R,4S,5S,6R)-3,4,5-trihydroxy-6-(hydroxymethyl)tetrahydro-2H-pyran-2-yloxy)butoxy)-2H-chromen-2-one], the IC50 is less than 1 µM.

For the compound `COc1ccc2c(Nc3c(Cl)cncc3Cl)cc(=O)oc2c1OCC(=O)NO` [Example 88, 2-(4-(3,5-Dichloropyridin-4-ylamino)-7-methoxy-2-oxo-2H-chromen-8-yloxy)-N-hydroxyacetamide], the IC50 was less than 1 µM.

Turning to `CCCN(C)CCCCCOc1c(OC)ccc2c(Nc3c(Cl)cncc3Cl)cc(=O)oc12` [Example 89, 4-(3,5-Dichloropyridin-4-ylamino)-7-methoxy-8-(5-(methyl(propyl)amino)pentyloxy)-2H-chromen-2-one], the IC50 is less than 1 µM.

The compound `CCCCN(C)CCCCCOc1c(OC)ccc2c(Nc3c(Cl)cncc3Cl)cc(=O)oc12` [Example 90, 8-(5-(Butyl(methyl)amino)pentyloxy)-4-(3,5-dichloropyridin-4-ylamino)-7-methoxy-2H-chromen-2-one] showed an IC50 of less than 1 µM.

Compound `CCCCCN(C)CCCCCOc1c(OC)ccc2c(Nc3c(Cl)cncc3Cl)cc(=O)oc12` [Example 91, 4-(3,5-Dichloropyridin-4-ylamino)-7-methoxy-8-(5-(methyl(pentyl)amino)pentyloxy)-2H-chromen-2-one] had an IC50 of less than 1 µM.

The compound `COc1ccc2c(Nc3c(Cl)cncc3Cl)cc(=O)oc2c1OCCCCCN(C)CCCN(C)C` [Example 92, 4-(3,5-Dichloropyridin-4-ylamino)-8-(5-((3-(dimethylamino)propyl)(methyl)amino)pentyloxy)-7-methoxy-2H-chromen-2-one] showed an IC50 of less than 1 µM.

Regarding `COc1ccc2c(Nc3c(Cl)cncc3Cl)cc(=O)oc2c1OCCCCCN(C)CCN(C)C` [Example 93, 4-(3,5-Dichloropyridin-4-ylamino)-8-(5-((2-(dimethylamino)ethyl)(methyl)amino)pentyloxy)-7-methoxy-2H-chromen-2-one], the IC50 was less than 1 µM.

`CCOC(=O)CNC(=O)CCCCCOc1c(OC)ccc2c(Nc3c(Cl)cncc3Cl)cc(=O)oc12` [Example 94, Ethyl 2-(6-(4-(3,5-dichloropyridin-4-ylamino)-7-methoxy-2-oxo-2H-chromen-8-yloxy)hexanamido)acetate]: the IC50 is less than 1 µM.

In turn, `COC(=O)[C@H](C)NC(=O)CCCCCOc1c(OC)ccc2c(Nc3c(Cl)cncc3Cl)cc(=O)oc12` [Example 95, (S)-Methyl 2-(6-(4-(3,5-dichloropyridin-4-ylamino)-7-methoxy-2-oxo-2H-chromen-8-yloxy)hexanamido)propanoate] returned an IC50 of less than 1 µM.

Compound `COc1ccc2c(Nc3c(Cl)cncc3Cl)cc(=O)oc2c1OCCCCCC(=O)NCC(=O)O` [Example 96, 2-(6-(4-(3,5-Dichloropyridin-4-ylamino)-7-methoxy-2-oxo-2H-chromen-8-yloxy)hexanamido)acetic acid] came in with an IC50 of less than 1 µM.

As to `COc1ccc2c(Nc3c(Cl)cncc3Cl)cc(=O)oc2c1OCCCCCC(=O)N[C@@H](C)C(=O)O` [Example 97, (S)-2-(6-(4-(3,5-Dichloropyridin-4-ylamino)-7-methoxy-2-oxo-2H-chromen-8-yloxy)hexanamido)propanoic acid], the IC50 is less than 1 µM.

Take `COc1ccc2c(Nc3c(Cl)cncc3Cl)cc(=O)oc2c1OCCCCCn1ccnn1` [Example 98, 8-(5-(1H-1,2,3-Triazol-1-yl)pentyloxy)-4-(3,5-dichloropyridin-4-ylamino)-7-methoxy-2H-chromen-2-one]: the IC50 is less than 1 µM.

As to `COc1ccc2c(Nc3c(Cl)cncc3Cl)cc(=O)oc2c1OCCCCCn1nccn1` [Example 99, 8-(5-(2H-1,2,3-Triazol-2-yl)pentyloxy)-4-(3,5-dichloropyridin-4-ylamino)-7-methoxy-2H-chromen-2-one], the IC50 was less than 1 µM.

`CNCCCCCOc1c(OC)ccc2c(Nc3c(Cl)cncc3Cl)cc(=O)oc12` [Example 100, 4-(3,5-Dichloropyridin-4-ylamino)-7-methoxy-8-(5-(methylamino)pentyloxy)-2H-chromen-2-one]: the IC50 is less than 1 µM.

`COc1ccc2c(Nc3c(Cl)cncc3Cl)cc(=O)oc2c1OCCCCCn1ncnn1` [Example 101, 8-(5-(2H-Tetrazol-2-yl)pentyloxy)-4-(3,5-dichloropyridin-4-ylamino)-7-methoxy-2H-chromen-2-one] displayed an IC50 of less than 1 µM.

Consider `COc1ccc2c(Nc3c(Cl)cncc3Cl)cc(=O)oc2c1OCCCCCn1cnnn1` [Example 102, 8-(5-(1H-Tetrazol-1-yl)pentyloxy)-4-(3,5-dichloropyridin-4-ylamino)-7-methoxy-2H-chromen-2-one], for which the IC50 was less than 1 µM.

Regarding `COc1ccc2c(Nc3c(Cl)cncc3Cl)cc(=O)oc2c1OCCCCCn1cncn1` [Example 103, 8-(5-(1H-1,2,4-Triazol-1-yl)pentyloxy)-4-(3,5-dichloropyridin-4-ylamino)-7-methoxy-2H-chromen-2-one], the IC50 was less than 1 µM.
